# Tests used:
# [1] = tested on: preformed biofilms of Gram-negative bacteria; test: Inhibition of further growth of biofilm cells, summary over strains; format: cell-based
# Experimental: (§1) The determination of MICs was performed according to Chlumsky et al.. Briefly, 96-well flat-bottomed microtiter plates were inoculated with 75 µL (for biofilm formation) or 100 µL (for preformed biofilm) of bacterial suspension (A625nm 0.08 to 0.1) in technical triplicates and were then carefully mixed with the dilution series of the test substances (24 h cultivation at 25 °C for S. Infantis, 37 °C for other strains) or were directly cultivated to preform biofilms (18 h). For a positive control of bacterial growth, the inoculum was mixed with a pure sterile medium. Furthermore, the sterile medium was included in the plate as a marker of potential microbial contamination. To evaluate planktonic cells growth (MICPC80) and further growth of biofilm cells (MICBC80), the optical density of the content of the microtiter plates was measured spectrophotometrically at 625 nm before and after 24 h (for biofilm formation) of cultivation or before and after additional 20 h incubation with the tested compound (for preformed biofilm). […] To evaluate the inhibition of biofilm formation (MICBF80) and reduction in preformed biofilms (MICBR80), biomass was quantified using crystal violet staining, and its metabolic activity (MICBM80 and MICMPB80) was estimated by using the MTT (thiazyl tetrazolium bromide, Sigma-Aldrich, USA) reduction assay, both measured spectrophotometrically at 595 nm. […]
# Gram-negative bacteria [2] = test: Inhibition of planktonic growth, summary over strains; format: cell-based; conditions: at maximal tested concentration (RLs 1000 µg/mL, UA 31.3 µg/mL)
# Experimental: as §1
# Gram-negative bacteria [3] = test: Inhibition of biofilm metabolic activity, summary over strains; format: cell-based; conditions: maximal tested concentration 31.3 µg/mL
# Experimental: as §1
# [4] = tested on: preformed biofilms of Gram-negative bacteria; test: Inhibition of metabolic activity of preformed biofilm, summary over strains; format: cell-based
# Experimental: as §1
# Gram-negative bacteria [5] = test: Reduction of preformed biofilm, summary over strains; format: cell-based
# Experimental: as §1
# Gram-positive bacteria = test: as above; format: cell-based; conditions: Gram-positive strains other than L. monocytogenes 164
# Experimental: as §1
# S. aureus 1945^GFPuvr = tested on: S. aureus 1945^GFPuvr; design: method as in PMID 30151647; conditions: cited from earlier work
# Gram-negative bacteria [6] = test: Inhibition of biofilm formation, summary over strains; format: cell-based; conditions: maximal tested concentration 31.3 µg/mL
# Experimental: as §1
# [7] = tested on: tested food-borne pathogens; test: MIC for bacterial growth, summary over all tested strains; format: cell-based; conditions: this study
# Experimental: as §1
# [8] = tested on: Haemophilus influenza, Pseudomonas aeruginosa, and Streptococcus pneumoniae; design: method as in PMID 29234086, PMID 31022884, PMID 27492531; conditions: clinical pathogens; cited from earlier work
# S. aureus 816 = test: MIC for further growth of biofilm cells, preformed biofilm (A625nm); format: cell-based, Staphylococcus aureus; conditions: ≥80% inhibition, 18 h preformed biofilm, 20 h with substance
# Experimental: Ten concentrations of NAC, RLs, and UA were tested to determine the minimum inhibitory concentration for planktonic growth, and subsequently, the six highest concentrations were applied on preformed biofilms to evaluate the biofilm eradication ability of the compounds. MIC was defined as the lowest substance concentration able to inhibit at least 80% of microbial growth (MICPC80 for planktonic cells, MICBC80 for further growth of biofilm cells), inhibit 80% of metabolic activity (MICBM80 for biofilm metabolic activity, MICMPB80 for metabolic activity of preformed biofilm), prevent biofilm formation by at least 80% (MICBF80 for biofilm formation), or reduce a preformed biofilm by at least 80% (MICBR80 for biofilm reduction). The results of MICs are summarized in Table 1 (planktonic cells) and Table 2 (biofilm-associated cells).
# The determination of MICs was performed according to Chlumsky et al.. […] To evaluate planktonic cells growth (MICPC80) and further growth of biofilm cells (MICBC80), the optical density of the content of the microtiter plates was measured spectrophotometrically at 625 nm before and after 24 h (for biofilm formation) of cultivation or before and after additional 20 h incubation with the tested compound (for preformed biofilm). […] To evaluate the inhibition of biofilm formation (MICBF80) and reduction in preformed biofilms (MICBR80), biomass was quantified using crystal violet staining, and its metabolic activity (MICBM80 and MICMPB80) was estimated by using the MTT (thiazyl tetrazolium bromide, Sigma-Aldrich, USA) reduction assay, both measured spectrophotometrically at 595 nm.
# All inhibitions were calculated using the formula of Chlumsky et al. below (Equation (1)):(1) A625(595)nm inhibition (%)=A625(595)nm (control) – A625(595)nm(natural substance)/A625(595)nm (control)× 100 where A625(595)nm (control) is the absorbance of bacterial suspension/biofilm itself, and A625(595)nm(natural substance) is the absorbance of the bacterial suspension/biofilm with the added natural substance (NAC, RLs, and UA). […]
SMILES,maximum observed inhibition of further growth of biofilm cells [1],"maximum inhibition of planktonic growth (MICPC80), range over strains (Gram-negative bacteria [2])","maximum inhibition (MICBM80), range over strains (Gram-negative bacteria [3])",maximum observed inhibition of metabolic activity of preformed biofilm [4],maximum observed reduction of preformed biofilm (Gram-negative bacteria [5]),"maximum observed reduction of preformed biofilm, range over strains (Gram-positive bacteria)","minimal inhibition concentration, bacterial growth (S. aureus 1945^GFPuvr) [µg/mL]","maximum inhibition (MICBF80), range over strains (Gram-negative bacteria [6])","MIC for bacterial growth, range over strains [7]",MIC needed for biofilm reduction [8],MICBC80 (S. aureus 816) [µg/mL]
"CC(=O)c1c(O)c(C)c(O)c2c1OC1=CC(=O)C(C(C)=O)C(=O)C12C (single isomer, unassigned; (+)) [UA, (+)-usnic acid]",up to 61%,20–42%,16–47%,up to 53%,up to 30%,35–72%,32,10–47%,–,–,–
"CC(=O)N[C@@H](CS)C(=O)O [NAC, N-Acetyl-L-cysteine]",–,–,–,–,–,–,–,–,"3130–12,500 µg/mL","2500–10,000 µg/mL",3130

# Source: publication PMC8583417, “Evaluation of the Antimicrobial Efficacy of N-Acetyl-L-Cysteine, Rhamnolipids, and Usnic Acid—Novel Approaches to Fight Food-Borne Pathogens” (International Journal of Molecular Sciences, 2021)
